Here are results for four compounds from PMC10922802 (Journal of the American Chemical Society, 2023).

Common to all, as to assay type: biochemical
One assay addresses T1, WecA (Tm) (Thermotoga maritima, UniProt Q9X1N5).
T1 sequence (Q9X1N5 1-291): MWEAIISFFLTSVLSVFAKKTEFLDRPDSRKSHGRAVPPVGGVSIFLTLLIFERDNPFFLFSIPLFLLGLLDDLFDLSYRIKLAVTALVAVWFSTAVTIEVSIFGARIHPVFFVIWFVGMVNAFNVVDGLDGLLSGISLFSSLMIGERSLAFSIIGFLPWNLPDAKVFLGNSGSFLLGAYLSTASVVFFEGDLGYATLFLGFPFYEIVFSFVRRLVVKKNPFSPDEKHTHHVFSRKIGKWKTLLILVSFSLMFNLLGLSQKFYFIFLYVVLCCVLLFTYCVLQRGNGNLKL
Description: PGT activity assay.

Assay [1] has as its target T2, PglC (Cj) (Campylobacter jejuni, UniProt Q0P9D0).
T2 sequence (Q0P9D0 1-200): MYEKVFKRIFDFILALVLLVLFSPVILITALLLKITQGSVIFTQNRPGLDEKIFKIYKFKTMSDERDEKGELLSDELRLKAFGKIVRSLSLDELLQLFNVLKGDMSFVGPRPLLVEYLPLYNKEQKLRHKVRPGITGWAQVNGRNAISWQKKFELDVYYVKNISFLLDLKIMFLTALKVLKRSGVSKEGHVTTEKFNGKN
Description: PGT activity assay with UDP-diNAcBac, percent inhibition at […]. As to conditions: read-out: % inhibition at 100 μM.

The target in assay [2] is T2, PglC (Cj).
Assay [3] concerns the target T2, PglC (Cj). Description: PGT activity assay with UDP-diNAcBac, percent inhibition at […]. The conditions noted are these: read-out: % inhibition at 100 μM. This is another data set of the same source.

Read-outs that look alike come from different tables or passages of the source.

`CC(=O)N[C@H]1[C@@H](OP(=O)(O)CP(=O)(O)OC[C@H]2O[C@@H](n3ccc(=O)[nH]c3=O)[C@H](O)[C@@H]2O)O[C@H](CO)[C@@H](O)[C@@H]1O` [compound 11, α-GlcNAc-CH2]: on WecA (Tm), half-maximal inhibition (IC50) was put at 41 ± 10 µM. The inhibition (as a rule, the drop in the measured response relative to a control, in per cent) at 100 µM at PglC (Cj) [1] stood at 28 ± 12%. In the case of `CC(=O)N[C@H]1[C@@H](OP(=O)(O)C(F)(F)P(=O)(O)OC[C@H]2O[C@@H](n3ccc(=O)[nH]c3=O)[C@H](O)[C@@H]2O)O[C@H](CO)[C@@H](O)[C@@H]1O` [compound 4, α-GlcNAc-CF2], at PglC (Cj) [2], 32 ± 5.3 µM corresponded to half-maximal inhibition (IC50). With `CC(=O)N[C@H]1[C@@H](OP(=O)(O)[C@@H](F)P(=O)(O)OC[C@H]2O[C@@H](n3ccc(=O)[nH]c3=O)[C@H](O)[C@@H]2O)O[C@H](CO)[C@@H](O)[C@@H]1O` [compound 7, α-GlcNAc-(S)-CHF], at PglC (Cj) [1], the inhibition at 100 µM was 52 ± 10%.

As for `O=c1ccn([C@@H]2O[C@H](COP(=O)(O)C(F)(F)P(=O)(O)O)[C@@H](O)[C@H]2O)c(=O)[nH]1` [compound 3, H-CF2], the inhibition at 100 µM on PglC (Cj) [3] came out at 33 ± 6%.
